Data: patent publication US8426447B2, “Spiro-tricyclic ring compounds as beta-secretase modulators and methods of use” (Amgen Inc., priority 2008, dated 2013)

Key:
[1] = biological target: T1, BACE1 (Homo sapiens, UniProt P56817); experiment: In Vitro Enzymatic BACE FRET (Fluorescence Resonance Energy Transfer) Assay; assay type: biochemical; details: read-out: BACE1 FRET assay
Method in brief: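 Cleavage of a 50 nM internally quenched peptide substrate is followed by fluorescence after a one-hour reaction in acidic acetate buffer, pH 4.2, terminated by Tris.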

[2] = biological target: T1, BACE1; experiment: In Vitro BACE Cell-based Assay (HEK cell assay): Aβ40 in conditioned medium of cells stably expressing Amyloid Precursor Protein, sandwich ELISA; details: read-out: HEK cell assay
Method in brief: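 HEK cells stably expressing APP were treated 24 h with compound in 10-point dose response starting at 100 or 10 μM (0.1% DMSO). Secreted Aβ40 quantified by sandwich ELISA (pAb40 capture, biotinylated 6E10 detection, europium time-resolved fluorescence), with IC50 derived from percent inhibition versus concentration.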

T1 sequence (P56817 46-501, species assumed): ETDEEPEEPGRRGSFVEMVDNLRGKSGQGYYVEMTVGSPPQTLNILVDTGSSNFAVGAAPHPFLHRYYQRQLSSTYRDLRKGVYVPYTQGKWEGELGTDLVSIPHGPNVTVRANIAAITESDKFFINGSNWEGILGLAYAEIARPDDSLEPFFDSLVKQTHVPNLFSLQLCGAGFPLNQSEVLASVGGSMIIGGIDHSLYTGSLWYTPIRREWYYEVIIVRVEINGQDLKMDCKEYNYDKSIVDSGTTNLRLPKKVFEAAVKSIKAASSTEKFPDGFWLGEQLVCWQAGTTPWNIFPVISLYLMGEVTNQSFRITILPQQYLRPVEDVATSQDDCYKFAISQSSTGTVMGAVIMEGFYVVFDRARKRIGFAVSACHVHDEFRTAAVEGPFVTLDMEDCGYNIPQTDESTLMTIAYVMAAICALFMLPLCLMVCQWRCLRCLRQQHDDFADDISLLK

**Q.** For `COc1cc2c(cc1F)Oc1ccc(-c3cncnc3)cc1[C@]21COC(N)=N1` [154a], which IC50 ([1]; Table III, IC50's in uM ranges) is on record?
**A.** The IC50 was greater than 5 µM.

**Q.** And the IC50 ([2]; Table III, IC50's in uM ranges)?
**A.** The IC50 was greater than 5 µM.

**Q.** How did the IC50 ([1]; Table IV, class symbols) turn out when `CC(C)(C)C#Cc1ccc2c(c1)[C@]1(COC(N)=N1)c1cc(Cl)ncc1O2` [compound 846] was run?
**A.** Its IC50 is 1 to 5 µM.

**Q.** What about the IC50 ([2]; Table IV, class symbols) of the same compound?
**A.** The IC50 was greater than 5 µM.

**Q.** `NC1=N[C@]2(CO1)c1cc(OCC3CCCO3)ccc1Oc1ccc(-c3cncnc3)cc12` (stereo partly drawn) [Example 60, (4S)-2′-(5-pyrimidinyl)-7′-(tetrahydro-2-furanylmethoxy)spiro[1,3-oxazole-4,9′-xanthen]-2-amine] was tested. Which IC50 ([1]; Table II) did it give?
**A.** The IC50 was less than 0.1 µM.

**Q.** And the IC50 ([2]; Table II, Aβ40, 24 h incubation)?
**A.** The IC50 was less than 0.1 µM.

**Q.** For `CSc1ccc(-c2ccc3c(c2)[C@]2(COC(N)=N2)c2cc(OCC(C)(C)C)ccc2O3)cc1` [compound 787], which IC50 [1] is on record?
**A.** Its IC50 is less than 0.1 µM.

**Q.** What about the IC50 [2] of the same compound?
**A.** The IC50 was 1 to 5 µM.

**Q.** What does the source list for `NC1=N[C@]2(CO1)c1cc(C3=CCNCC3)ccc1Oc1ccc(-c3cccnc3)cc12` [compound 810]?
**A.** IC50 ([1]; Table IV, class symbols): < 0.1 µM; IC50 ([2]; Table IV, class symbols): < 0.1 µM

**Q.** Which results are given for `C[C@@H]1CN(c2cc(F)c3c(c2)[C@]2(COC(N)=N2)c2cc(-c4cccnc4)ccc2O3)C[C@H](C)O1` [compound 483]?
**A.** IC50 [1]: < 0.1 µM; IC50 ([2]; HEK cells): < 0.1 µM

**Q.** How did the IC50 [1] turn out when `CC(C)(C)COc1ccc2c(c1)[C@]1(COC(N)=N1)c1cc(C3CC3(C)C)ccc1O2` (stereo partly drawn) [compound 754] was run?
**A.** Its IC50 is less than 0.1 µM.

**Q.** And the IC50 [2]?
**A.** The IC50 was 0.1 to 1 µM.

**Q.** With `CC1(C)CC(c2cc3c(cc2F)Oc2ccc(-c4cncnc4)cc2[C@@]32COC(N)=N2)=CC(=O)O1` [compound 524] as the compound, how does the IC50 [1] read?
**A.** The IC50 was less than 0.1 µM.

**Q.** And the IC50 ([2]; HEK cells)?
**A.** Its IC50 is less than 0.1 µM.

**Q.** `COc1ccc2c(c1)C1(COC(N)=N1)c1cc(-c3ccc(OC(F)(F)F)cc3)ccc1O2` (stereo not drawn) [Example 27, 2′-methoxy-7′-(4-(trifluoromethoxy)phenyl)spiro[1,3-oxazole-4,9′-xanthen]-2-amine] was tested. Which IC50 ([1]; Table 1) did it give?
**A.** The IC50 was greater than 5 µM.

**Q.** What about the IC50 ([2]; Table 1, Aβ40, 24 h incubation) of the same compound?
**A.** Its IC50 is 1 to 5 µM.

**Q.** For `COC(C)(C)C#Cc1cnc2c(c1)[C@]1(COC(N)=N1)c1cc(-c3cccnc3)ccc1O2` [compound 603], which IC50 ([1]; Table IV, class symbols) is on record?
**A.** The IC50 was less than 0.1 µM.

**Q.** And the IC50 ([2]; Table IV, class symbols)?
**A.** Its IC50 is less than 0.1 µM.

**Q.** What does the source list for `CCCOc1cc2c(cc1F)Oc1ccc(-c3ccc(F)nc3)cc1[C@@]21COC(N)=N1` [compound 920]?
**A.** IC50 ([1]; Table IV, class symbols): < 0.1 µM; IC50 ([2]; Table IV, class symbols): 0.1 to 1 µM

**Q.** How did the IC50 [1] turn out when `NC1=N[C@]2(CO1)c1cc(-c3ccc(F)cc3)ccc1Oc1ncc(C3=CCOCC3)cc12` [compound 691] was run?
**A.** Its IC50 is 1 to 5 µM.

**Q.** And the IC50 [2]?
**A.** Its IC50 is 1 to 5 µM.

**Q.** Which results are given for `NC1=N[C@@]2(CO1)c1cc(-c3cccnc3)ccc1Oc1cnc(N3CCOCC3)cc12` [compound 335]?
**A.** IC50 ([1]; in vitro BACE FRET enzyme assay, IC50 class symbols): < 0.1 µM; IC50 ([2]; HEK cell-based assay, Aβ40 in conditioned medium, IC50 class symbols): < 0.1 µM

**Q.** What does the source list for `NC1=N[C@]2(CO1)c1cc(C3=CCOC3)ccc1Oc1ccc(-c3cncnc3)cc12` [compound 448]?
**A.** IC50 [1]: < 0.1 µM; IC50 ([2]; HEK cells): < 0.1 µM

**Q.** How did the IC50 [1] turn out when `NC1=N[C@@]2(CO1)c1cc(-c3cccnc3)ccc1Oc1cnc(Cl)cc12` [compound 676] was run?
**A.** The IC50 was 0.1 to 1 µM.

**Q.** And the IC50 [2]?
**A.** The IC50 was 1 to 5 µM.

**Q.** Which results are given for `NC1=N[C@@]2(CO1)c1cc(-c3cccnc3)ccc1Oc1cnc(N3CCC3)cc12` [compound 447]?
**A.** IC50 [1]: < 0.1 µM; IC50 ([2]; HEK cells): 0.1 to 1 µM

**Q.** What does the source list for `CC(C)CCCOc1nccc2c1[C@@]1(COC(N)=N1)c1cc(-c3cccnc3)ccc1O2` [compound 843]?
**A.** IC50 ([1]; Table IV, class symbols): > 5 µM; IC50 ([2]; Table IV, class symbols): > 5 µM

**Q.** Which results are given for `CC(C)(F)COc1cc2c(cc1F)Oc1ccc(-c3cncnc3)cc1[C@@]21COC(N)=N1` [compound 530]?
**A.** IC50 [1]: < 0.1 µM; IC50 ([2]; HEK cells): < 0.1 µM

**Q.** Which results are given for `COC(C)(C)C#Cc1ccc2c(c1)[C@@]1(COC(N)=N1)c1cc(C#CC(C)(C)OC)cnc1O2` [compound 934]?
**A.** IC50 [1]: < 0.1 µM; IC50 [2]: < 0.1 µM

**Q.** What does the source list for `NC1=N[C@@]2(CO1)c1cc(Br)ccc1Oc1ccc(/C=C/C(=O)O)cc12` [compound 919]?
**A.** IC50 ([1]; Table IV, class symbols): 1 to 5 µM; IC50 ([2]; Table IV, class symbols): > 5 µM

**Q.** With `NC1=N[C@@]2(CO1)c1cc(-c3cc(F)ccc3F)ccc1Oc1ncc(N3CCOCC3)cc12` [compound 461] as the compound, how does the IC50 [1] read?
**A.** The IC50 was less than 0.1 µM.

**Q.** And the IC50 ([2]; HEK cells)?
**A.** The IC50 was less than 0.1 µM.

**Q.** How did the IC50 [1] turn out when `CC(C)(C)COc1ccc2c(c1)[C@]1(COC(N)=N1)c1cc(-c3c[nH]cn3)ccc1O2` [compound 978] was run?
**A.** The IC50 was 0.1 to 1 µM.

**Q.** And the IC50 [2]?
**A.** Its IC50 is 1 to 5 µM.

**Q.** What does the source list for `N#Cc1ccc(-c2ccc3c(c2)[C@@]2(COC(N)=N2)c2cc(-c4cccnc4)ccc2O3)cn1` [compound 683]?
**A.** IC50 [1]: < 0.1 µM; IC50 [2]: < 0.1 µM

**Q.** What does the source list for `NC1=N[C@@]2(CO1)c1cc(-c3cncnc3)ccc1Oc1ncc(C3=CCOCC3)cc12` [compound 805]?
**A.** IC50 ([1]; Table IV, class symbols): < 0.1 µM; IC50 ([2]; Table IV, class symbols): < 0.1 µM
